Experimental findings from ChEMBL document CHEMBL3044941, “Synthesis and Structure-Activity Relationships of Dinotefuran Derivatives: Modification in the Tetrahydro-3-furylmethyl Part” (2004) are described below.

A value given as a limit tells only on which side of the number the result lay.

For assay [1], the system named is Laodelphax striatellus. Nature of the assay: Insecticidal activity against 1 to 3 day-old adult Laodelphax striatella (small brown planthopper) infested compound-treated rice seedlings assessed as mortality measured after 3 days. Format: functional.
For assay [2], the system named is Nephotettix cincticeps. Kind of assay: Insecticidal activity against 1 to 3 day-old adult Nephotettix cincticeps (green rice leafhopper) infested in compound-treated rice seedlings assessed as mortality measured after 3 days. Format: functional.

In the case of `CN/C(=C\[N+](=O)[O-])NCC1CCOC1` (configuration not stated), the LC70 in assay [1] and in assay [2] was 0.1 ppm in each case.

Take `CN/C(=N\[N+](=O)[O-])NCC1CCOC1C` (configuration not stated): the LC70 in assay [1] and in assay [2] was over 1000 ppm in each case.

As to `CN/C(=N\[N+](=O)[O-])NCC1(C)CCOC1` (configuration not stated), the LC70 in assay [1] and in assay [2] was over 1000 ppm in each case.

In the case of `O=[N+]([O-])/C=C1\NCCCN1CC1CCOC1` (configuration not stated), the LC70 was determined as 1 ppm in assay [1] and 0.1 ppm in assay [2].

As for `O=[N+]([O-])/N=C1\NCCCN1CC1CCOC1` (configuration not stated), the values for the LC70 in assay [1] and in assay [2] were 1 ppm and 0.1 ppm, respectively.

On to `CC1(C)CC(CN2CCCN/C2=N\[N+](=O)[O-])CO1` (configuration not stated), for which the LC70 in assay [1] stood at 10 ppm; in assay [2], 1 ppm.

`CN/C(=N\[N+](=O)[O-])NCC1COC(C)(C)C1` (configuration not stated): the LC70 came to 100 ppm in assay [1] and 1 ppm in assay [2].

On to `CN/C(=C\[N+](=O)[O-])NCC1COC(C)(C)C1` (configuration not stated), for which the LC70 was 10 ppm in assay [1] and 1 ppm in assay [2].

Take `CC1(C)CC(CN2CCCN/C2=C\[N+](=O)[O-])CO1` (configuration not stated): the LC70 in assay [1] and in assay [2] was 1 ppm in each case.

For `CN/C(=N\[N+](=O)[O-])NCC1COC(C)C1` (mixture of isomers), the LC70 stood at 10 ppm in assay [1] and 1 ppm in assay [2].

With `CCC1COCC1CN/C(=N/[N+](=O)[O-])NC` (mixture of isomers), the LC70 was over 1000 ppm in assay [1] and 100 ppm in assay [2].

On to `CN/C(=N\[N+](=O)[O-])NCC1COCC1C` (mixture of isomers), for which the LC70 in assay [1] came to 10 ppm; in assay [2], 1 ppm.

In the case of `CCC1COCC1CN/C(=C/[N+](=O)[O-])NC` (mixture of isomers), the LC70 in assay [1] is reported as over 1000 ppm; in assay [2] it was 100 ppm.

`CC1COCC1CN1CCCN/C1=N\[N+](=O)[O-]` (mixture of isomers): the results for the LC70 in assay [1] and in assay [2] were 10 ppm and 0.1 ppm, respectively.

For the compound `CC1CC(CN2CCCN/C2=N\[N+](=O)[O-])CO1` (mixture of isomers), the values for the LC70 in assay [1] and in assay [2] were 1 ppm and 0.1 ppm, respectively.

Regarding `CN/C(=N\[N+](=O)[O-])NCC1CCOC1OC` (mixture of isomers), the LC70 in assay [1] and in assay [2] was over 1000 ppm each time.

On to `CN/C(=N\[N+](=O)[O-])NCC1(C)COCC1C` (mixture of isomers), for which the LC70 in assay [1] and in assay [2] was over 1000 ppm throughout.

Consider `CN/C(=N\[N+](=O)[O-])NCC1COC(c2ccccc2)C1` (mixture of isomers), for which the LC70 in assay [1] and in assay [2] was over 1000 ppm in each case.

As to `CN/C(=C\[N+](=O)[O-])NCC1CCOC1C` (mixture of isomers), the LC70 in assay [1] and in assay [2] was over 1000 ppm throughout.

Consider `CN/C(=C\[N+](=O)[O-])NCC1CCOC1OC` (mixture of isomers), for which the LC70 in assay [1] and in assay [2] was over 1000 ppm in each case.

For the compound `CN/C(=C\[N+](=O)[O-])NCC1COCC1C` (mixture of isomers), the LC70 in assay [1] and in assay [2] was 1 ppm each time.

On to `CN/C(=C\[N+](=O)[O-])NCC1COC(C)C1` (mixture of isomers), for which the LC70 amounted to 10 ppm in assay [1] and 1 ppm in assay [2].

Turning to `CC1COCC1CN1CCCN/C1=C\[N+](=O)[O-]` (mixture of isomers), the LC70 in assay [1] amounted to 1 ppm; in assay [2], 0.1 ppm.

In the case of `CCC1COCC1CN1CCCN/C1=C\[N+](=O)[O-]` (mixture of isomers), the LC70 in assay [1] was 100 ppm; in assay [2] it was over 1000 ppm.

`CC1CC(CN2CCCN/C2=C\[N+](=O)[O-])CO1` (mixture of isomers): the LC70 in assay [1] and in assay [2] was 1 ppm each time.

As to `CN/C(=N/CC1CCOC1)N[N+](=O)[O-]` (configuration not stated) [DINOTEFURAN], the LC70 in assay [1] and in assay [2] was 0.1 ppm in each case.
